Measurements: patent publication US8143226B2, “Tyrosine kinase receptor antagonists and methods of treatment for breast cancer” (The Regents of the University of California, priority 2005, dated 2012)

Assays:
HER2/neu = target: T1, HER2/neu (Rattus norvegicus, UniProt P06494); test: HER2/neu autophosphorylation in MCNeuA cells (western blot); assay type: cell-based, mouse; conditions: read-out: IC50, ligand-independent tyrosine phosphorylation of HER2/neu
T1 construct: expressed in transfected cells; host or cells: MCNeuA mouse mammary carcinoma cells (MMTV/neu transgene), in culture or grown as tumours in neuTg mice
Protocol: HER2/neu receptor autophosphorylation was determined in serum-starved MCNeuA or SKBR3 cells, which were collected in the basal state, due to the ligand-independent nature of HER2/neu activation. Following a one-hour incubation in serum-free media, soluble extracts of cells were prepared as above. HER2/neu autophosphorylation was determined by a western blot that employed a phosphospecific antibody, pNeu(Tyr1248) as described above.

MCF-7 cells = test: Proliferation of MCF-7 cells in 10% fetal calf serum (CyQUANT); assay type: cell-based, human; conditions: MCF-7, 10% fetal calf serum
Protocol: MCF-7 or MCNeuA cells were plated in 96 well plates (5×10^3 cells/well) in DMEM supplemented with 10% FCS. One plate was prepared for each harvest day. […] Microplate cultures were harvested on days 0, 1, 2, and 3 by inverting the microplate onto paper towels with gentle blotting to remove growth medium without disrupting adherent cells. Each plate was kept at −80° C. until the end of the experiment (day 3) when all of the plates were thawed and assayed together. After thawing, 200 μl of CyQUANT GR solution was added to each well and the plates were incubated in the dark for two to five minutes. Fluorescence was measured with a SpectraMax Gemini XS fluorescence microplate reader (Molecular Devices, Sunnyvale, Calif.) with 480-nm excitation and 520-nm emission. Proliferation index was calculated as the percent of nucleotide content versus control cells at day 0.

[1] = test system: SH-SY5Y, SHEP and Kelly neuroblastoma cells; test: CyQUANT assay for neuroblastoma cell growth; assay type: cell-based, human
Protocol: CyQUANT assay for cell growth. Cells were plated on four 96-well tissue culture plates, in DMEM/10% calf serum at a density of 8000 cells/well and incubated for 24 h. In one set of experiments, the medium was switched to serum free DMEM supplemented with 1% bovine serum albumin (to provide osmotic support). IGF-I (10 nM) was added to some samples on a daily basis for up to 3 days. […] The media from one plate was immediately removed, and the plate was frozen at −80° C. This plate served as the baseline for the experiment. Single plates were frozen at 24, 48, and 72 h following addition of drugs. DNA content of each well was quantified by staining with CyQUANT according to the manufacturer's instructions and measuring CyQUANT […] with a fluorimeter. Each condition was run in triplicate, and the experiment was repeated three times.

caspase-3 = test: Caspase-3 cleavage in SH-SY5Y cells; assay type: cell-based, human; conditions: SH-SY5Y cells in serum, 6 h
Text: Detection of Caspase-3 cleavage. […] Lysates were collected as described above, and the 14/17 kD cleavage fragments of caspase-3 were detected via SDS-PAGE followed by immunoblotting with anti-cleaved caspase-3 antibody.

SH-SY5Y cells = test: Propidium iodide flow cytometry of apoptotic (sub-G0) SH-SY5Y cells; assay type: cell-based, human; conditions: SH-SY5Y cells in serum, 30-120 μM, 24 h
Protocol: Propidium iodide staining of apoptotic cells. SH-SY5Y cells were cultured in DMEM with 10% calf serum. […] The supernatant was collected to save detached cells. Attached cells were removed from the plate via trypsinization, and pelleted by centrifugation in combination with the cells in the supernatant. The cell pellet was fixed by drop-wise addition of cold 70% ethanol while vortexing, gently, and stored at 4° C. The pellet was washed twice and resuspended in PBS and stained with 1 μg/ml propidium iodide. Propidium iodide fluorescence was measured in 30,000 cells per sample using a Becton-Dickinson (Franklin Lakes, N.J.) Facscalibur flow cytometer. The percentage of cells in each stage of the cell cycle, as well as the percentage of cells that were apoptotic (sub-G0) was determined by analyzing the data with ModFit software. The experiment was repeated three times.

SH-SY5Y and SHEP cells = test: IGF-I stimulated motility of neuroblastoma cells on gold particle-coated coverslips; assay type: cell-based, human; conditions: 30 μM NDGA, 1 nM IGF-I, 6 h
Protocol: Measurement of cell motility. Neuroblastoma cells were plated on gold particle-coated coverslips (prepared as described in (30)) in serum-free media at a density of 25,000 cells per coverslip. The cells were incubated for 2 h to allow adhesion to the coverslip. […] 1 nM IGF-I was then added to some wells. Incubation continued for 6 h, followed by fixation with 3.5% glutaraldehyde. Coverslips were mounted on glass slides, then viewed on a Lietz Orthoplan inverted microscope attached to a Sony videoprocessor. Digital images of the tracks etched into the gold by the cells from 3 separately treated coverslips per condition were collected at 200× magnification using Adobe Photoshop software. For each condition, the areas of 120 tracks made by individual cells were measured with NIH Image 1.61 software.

MCF-7/HER2-18 cells = test: Tamoxifen and/or NDGA growth inhibition of MCF-7/HER2-18 cells (CyQuant); assay type: cell-based; conditions: Homo sapiens
Protocol: Cells were estrogen-starved for three days in DMEM containing 10% charcoal-[…]-stripped FCS (CDSS) prior to their plating in 96 well plates. Cells were plated in 100 μl of the same media, allowed to adhere overnight, and then were switched to DMEM+10% CDSS supplemented with 100 pM estrogen. […] The media and inhibitors were refreshed on day 3, the cultures were harvested on day 6, and a CyQuant assay was performed as described above.

[2] = single injection, mouse, intravenous; cited from earlier work
IGF-1R = IGF-1R (Homo sapiens, UniProt P08069); test: IGF-1R phosphorylation ELISA in MCF-7/HER2-18 cells; assay type: cell-based; parameters: endogenous in cells; host or cells: MCF-7/HER2-18; conditions: 3 nM IGF-I 10 min
Chain of IGF-1R (P08069 31-1367): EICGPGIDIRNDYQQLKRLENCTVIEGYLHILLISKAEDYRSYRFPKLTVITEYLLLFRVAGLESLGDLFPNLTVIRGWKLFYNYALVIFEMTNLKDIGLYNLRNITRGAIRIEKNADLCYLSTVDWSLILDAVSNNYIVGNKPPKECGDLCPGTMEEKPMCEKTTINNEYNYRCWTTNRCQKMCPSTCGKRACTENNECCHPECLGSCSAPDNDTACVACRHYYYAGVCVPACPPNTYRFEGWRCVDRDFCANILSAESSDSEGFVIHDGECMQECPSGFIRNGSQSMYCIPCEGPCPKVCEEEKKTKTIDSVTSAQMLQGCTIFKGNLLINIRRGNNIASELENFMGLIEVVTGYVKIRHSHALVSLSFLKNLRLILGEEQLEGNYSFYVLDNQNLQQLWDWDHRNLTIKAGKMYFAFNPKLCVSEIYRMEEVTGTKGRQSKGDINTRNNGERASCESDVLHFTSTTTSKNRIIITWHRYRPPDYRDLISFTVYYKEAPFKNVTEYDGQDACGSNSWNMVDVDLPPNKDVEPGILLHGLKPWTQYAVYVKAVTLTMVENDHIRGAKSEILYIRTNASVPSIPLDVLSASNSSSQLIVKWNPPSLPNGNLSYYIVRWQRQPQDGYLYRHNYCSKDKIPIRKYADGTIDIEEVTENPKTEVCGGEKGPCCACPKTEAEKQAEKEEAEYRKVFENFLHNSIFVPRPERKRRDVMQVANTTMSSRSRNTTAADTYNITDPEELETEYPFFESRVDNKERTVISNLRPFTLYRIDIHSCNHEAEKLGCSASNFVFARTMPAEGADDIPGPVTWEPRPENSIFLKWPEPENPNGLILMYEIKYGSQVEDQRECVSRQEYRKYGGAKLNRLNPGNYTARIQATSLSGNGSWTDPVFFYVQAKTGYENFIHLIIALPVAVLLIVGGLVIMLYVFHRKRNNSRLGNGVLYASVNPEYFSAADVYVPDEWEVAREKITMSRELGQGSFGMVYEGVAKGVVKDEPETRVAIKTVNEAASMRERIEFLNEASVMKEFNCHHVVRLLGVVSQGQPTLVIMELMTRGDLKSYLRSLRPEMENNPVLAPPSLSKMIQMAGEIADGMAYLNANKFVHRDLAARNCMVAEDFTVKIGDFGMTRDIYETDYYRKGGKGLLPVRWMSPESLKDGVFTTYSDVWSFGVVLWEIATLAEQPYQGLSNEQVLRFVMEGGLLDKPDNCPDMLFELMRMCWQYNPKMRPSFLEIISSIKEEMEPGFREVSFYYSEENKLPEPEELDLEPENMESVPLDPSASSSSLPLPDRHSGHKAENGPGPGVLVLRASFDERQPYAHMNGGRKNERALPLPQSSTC
Protocol: RTK inhibitors were dissolved in DMSO and diluted with culture medium before being added to cells for 1.5 hour at 37° C. The final concentration of DMSO during the incubation was 0.3% . For some studies, cells were also stimulated with 3 nM IGF-I for 10 minutes at 37° C. Reactions were terminated by rapidly aspirating medium and washing cells three times with ice cold PBS. Cells were harvested and solubilized in 50 mM HEPES, 150 mM NaCl, 1% Triton X-100, 1 mM PMSF, and 2 mM vanadate for 1 hour at 4° C. Protein concentrations were determined by BCA assay (Pierce, Rockford, Ill.). […] Briefly, 10 μg lysate protein were added to triplicate wells in a 96-well plate coated with monoclonal antibody to the IGF-IR (IR3; 2 μg/ml), and incubated for 18 hours at 4° C. Plates were washed five times and then HRP-conjugated anti-phosphotyrosine antibody (0.3 μg/ml), diluted in Solution B (50 mM HEPES, pH 7.6, 150 mM NaCl, 0.05% Tween-20, 1 mM PMSF, 2 mM vanadate and 1 mg/ml bacitracin), was added for two hours at 22° C. Plates were washed five times prior to color development with TMB substrate, which was terminated with 1.0 M H3PO4. Values for receptor phosphorylation were determined by measuring absorbance at 450 nm.

T1 sequence (P06494 23-1257): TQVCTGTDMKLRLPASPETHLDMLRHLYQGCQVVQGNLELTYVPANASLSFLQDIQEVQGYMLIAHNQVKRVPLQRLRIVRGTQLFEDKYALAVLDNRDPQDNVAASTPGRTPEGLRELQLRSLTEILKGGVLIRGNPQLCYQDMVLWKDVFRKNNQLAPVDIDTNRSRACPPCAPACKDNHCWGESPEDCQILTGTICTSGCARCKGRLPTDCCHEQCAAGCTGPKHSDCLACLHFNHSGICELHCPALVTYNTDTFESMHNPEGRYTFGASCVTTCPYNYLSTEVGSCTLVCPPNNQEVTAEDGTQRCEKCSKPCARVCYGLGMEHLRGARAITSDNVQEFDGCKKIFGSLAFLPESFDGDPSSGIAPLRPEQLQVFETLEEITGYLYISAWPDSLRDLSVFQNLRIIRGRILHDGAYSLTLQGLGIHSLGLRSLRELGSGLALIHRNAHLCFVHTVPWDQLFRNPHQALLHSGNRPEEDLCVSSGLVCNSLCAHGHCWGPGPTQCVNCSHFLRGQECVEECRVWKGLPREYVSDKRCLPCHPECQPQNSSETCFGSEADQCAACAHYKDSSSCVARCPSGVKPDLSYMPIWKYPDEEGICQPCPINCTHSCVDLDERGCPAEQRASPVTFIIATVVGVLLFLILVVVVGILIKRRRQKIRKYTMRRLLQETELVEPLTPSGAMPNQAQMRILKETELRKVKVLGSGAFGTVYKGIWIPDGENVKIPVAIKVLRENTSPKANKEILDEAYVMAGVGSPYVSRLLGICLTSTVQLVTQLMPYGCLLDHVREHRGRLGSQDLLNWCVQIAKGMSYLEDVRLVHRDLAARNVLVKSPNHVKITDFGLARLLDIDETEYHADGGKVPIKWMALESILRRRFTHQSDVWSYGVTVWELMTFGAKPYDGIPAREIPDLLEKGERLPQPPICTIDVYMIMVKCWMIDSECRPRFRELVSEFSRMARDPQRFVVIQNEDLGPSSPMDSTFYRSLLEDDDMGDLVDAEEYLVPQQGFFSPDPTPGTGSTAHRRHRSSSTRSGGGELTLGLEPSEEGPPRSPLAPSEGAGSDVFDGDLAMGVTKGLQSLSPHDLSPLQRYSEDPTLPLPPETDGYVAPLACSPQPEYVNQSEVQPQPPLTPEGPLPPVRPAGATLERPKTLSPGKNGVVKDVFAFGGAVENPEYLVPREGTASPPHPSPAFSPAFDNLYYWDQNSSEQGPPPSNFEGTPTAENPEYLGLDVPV

CC(Cc1ccc(O)c(O)c1)C(C)Cc1ccc(O)c(O)c1 (stereo not shown) [NDGA, nordihydroguaiaretic acid]
IC50 (HER2/neu): 15 ± 4 µM | cell number (MCF-7 cells; 60 μM, within 24 hours): dramatically reduced | lowest concentration significantly reducing rate of proliferation (MCF-7 cells; up to 3 days): 15 µM | proliferation in serum-free media with 10 nM IGF-I ([1]; SH-SY5Y and Kelly cells, up to 72 h): inhibited proliferation | proliferation in medium containing 10% serum ([1]; SH-SY5Y and SHEP cells, up to 72 h): inhibited the proliferation | dose that completely blocks neuroblastoma growth in vitro ([1]; serum and serum-free conditions, several days): 15 to 30 µM | caspase-3 activation (caspase-3): dose-dependent caspase-3 activation | percentage of sub-G0 cells (SH-SY5Y cells): dramatic, dose-dependent increase | IGF-I induced increase in motility (SH-SY5Y and SHEP cells): strongly suppressed | inhibition at 10 µM (MCF-7/HER2-18 cells): 9% | inhibition at 15 µM (MCF-7/HER2-18 cells): 38% | terminal half-life [2]: 135 min | IGF-1 stimulated phosphorylation of the IGF-1R (IGF-1R): strongly inhibited
